Results published in patent publication US4308249A, “Radiopharmaceutical complexes of N-(tri-substituted alkyl)-iminodiacetic acids” (priority 1979, dated 1981).

How the values were obtained:
[1] = Disposition of radioactivity in rabbit after i.v. chelate, Anger camera scintigraphy (Table 1); format: in vivo, New Zealand rabbit; set-up: key to Relative Distribution of Chelate: Vascular / Relative Distribution of Chelate: Liver / Relative Distribution of Chelate: Gallbladder / Relative Distribution of Chelate: Intestine: -: no statistically significant measured radioactivity; ±: relative amounts of measured radioactivity; +: relative amounts of measured radioactivity; ++: relative amounts of measured radioactivity; +++: the maximum measured radioactivity
Procedure: (§1) A volume of a solution of the chelate of technetium-99 m and N-(3-cyano-3,3-diphenylpropyl)-iminodiacetic acid prepared as in Examples 1 and 2 in the range of 0.1 to 1.0 milliliter and having a radioactivity of 1.2 millicuries and containing 0.5 to 5 milligrams of the chelate was administered intravenously to an anesthetized New Zealand rabbit weighing about 3 kilograms using a 1 milliliter tuberculin syringe connected to a #23 gauge indwelling cannula inserted into a marginal ear vein. The rabbit was positioned in a full ventral position for four hours during which time the disposition of the radioactivity in the rabbit in this position was monitored using a computer-augmented Anger camera.
(§2) At various times after administration of a solution of a chelate of this invention which are indicated in Tables 1-4, scintiscan photographs and video tape recordings were taken of the rabbit, female beagle and monkey using the Anger camera. This instrument was a Pho-Gamma LFOV Scintillation Camera System, Model 6413, fitted with a Model 3137 Vari-Back Camera, a Model 3122 Data-Store/Playback System and a Model 27851 Analog-Digital/Digital-Analog Converter (all Searle Radiographics, Inc.). This entire system was interfaced with a Xerox 530 computer (Xerox Corp., Minneapolis, Minn.) which was programmed to record net counts per unit of time and percents of total counts in individual organs and to plot organ radioactivity versus time and to separate the radioactivity of the gallbladder from the radioactivity of the liver. The camera was operated with a 140 keV high resolution Type II converging collimator using a 20 percent technetium-99 m window. Generally 400,000 counts were accumulated on each scintiscan using both video tape and self-developing film, with the animal in the full ventral position. The photographs represented a visualization of the anatomic relationships in the hepatobiliary system.
(§3) The video tape was processed by computer for quantification of the distribution of the technetium-99 m chelate radioactivity in the organs of the animals. Tables 1-4 contain semi-quantitative representations of the distribution of radioactivity in the organs of the test animals calculated from the scintiscans. In Tables 1-4, (-), (±), (+), (++) and (+++) indicate relative amounts of measured radioactivity ranging from (-) for no statistically significant measured radioactivity to (+++) for the maximum measured radioactivity.

[2] = Disposition of radioactivity in female beagle dog after i.v. chelate, Anger camera scintigraphy (Tables 2 and 3, FIG. 1); format: in vivo; set-up: key to Relative Distribution of Chelate: Vascular / Relative Distribution of Chelate: Liver / Relative Distribution of Chelate: Gallbladder: -: no statistically significant measured radioactivity; ±: relative amounts of measured radioactivity; +: relative amounts of measured radioactivity; ++: relative amounts of measured radioactivity; +++: the maximum measured radioactivity; details: for Relative Distribution of Chelate: Gallbladder / Relative Distribution of Chelate: Liver / Relative Distribution of Chelate: Vascular: i.v.
Procedure: (§4) This procedure used with the rabbit was repeated with additional anesthetized animals; a female beagle dog weighing 9.25 kilograms, and a female rhesus monkey weighing 7.9 kilograms. Again 0.1 to 1.0 milliliter of the solution containing 0.5 to 5 milligrams of the same chelate and prepared as in Examples 1 and 2 was administered in each case. One difference was that unlike the case of the rabbit, the chelate solution was injected intravenously in the saphenous vein of the dog or monkey. In separate tests with the female beagle, (1) a solution having 1.13 mCi of the chelate and (2) a solution having a 3.10 mCi of the chelate were administered, and the disposition of radioactivity in the dog was monitored for one hour and 3 hours, respectively. In addition, FIG. 1 represents results of the test involving administration of 3.10 mCi of radioactive chelate to the female beagle dog.
as §2, §3
The disappearance of the radioactive chelate from the liver and its appearance in the gallbladder of the female beagle as well as the presence of the radioactive chelate in the total hepatobiliary system of the female beagle was calculated from video tape measurements by the computer and are plotted as percentages of total radioactivity administered in the form of the radioactive chelate versus time after administration in FIG. 1. At about 120 minutes after administration, about 75 percent of the total radioactivity administered was concentrated in the gallbladder, and in excess of 90 percent of the total dose of the radioactive chelate was in the hepatobiliary system. Approximately 50 percent of the radioactive chelate in the total hepatobiliary system had passed from the liver into the gallbladder within about 45 minutes after administration.

[3] = Disposition of radioactivity in female rhesus monkey after i.v. chelate, Anger camera scintigraphy (Table 4); format: in vivo; set-up: key to Relative Distribution of Chelate: Vascular / Relative Distribution of Chelate: Liver / Relative Distribution of Chelate: Gallbladder / Relative Distribution of Chelate: Intestine: -: no statistically significant measured radioactivity; ±: relative amounts of measured radioactivity; +: relative amounts of measured radioactivity; ++: relative amounts of measured radioactivity; +++: the maximum measured radioactivity
Procedure: as §4
(§5) In the test using the female rhesus monkey, 0.1 to 1.0 milliliter of a solution of the chelate of technetium-99 m and N-(3-cyano-3,3-diphenylpropyl)-iminodiacetic acid prepared as in Examples 1 and 2 and having a radioactivity of 1.23 mCi and containing 0.5 to 5 milligrams of the same chelate was administered and the disposition of the radioactive material in the monkey was monitored for one hour.
as §2, §3

[4] = Plasma clearance of radioactivity in female beagle, gamma spectrometer (FIG. 2); format: in vivo, female beagle dog
Procedure: In addition, periodically during the time of monitoring the distribution of radioactivity in the female beagle, blood samples were removed from the jugular vein of the animal and collected in vacuum tubes containing the disodium salt of ethylendiaminetetraacetic acid and the radioactivity of one milliliter samples of plasma was measured in a gamma spectrometer.
(§6) The gamma spectrometer employed was a Model 1185 Gamma Scintillation Spectrometer (Searle Analytic Inc., Des Plaines, Ill.). One milliliter samples of plasma or whole blood were analyzed for technetium-99 m, and samples were counted for 1 minute. FIGS. 2 and 3 show the radioactivity present in the plasma or whole blood, respectively, versus the time in hours after administration of the chelate to the animals. As determined by the computer, curves A and B were the best fitting curves passing through the plots of experimentally measured radioactivities. […] This illustrates that, after being distributed throughout the body the chelate of this invention is cleared relatively quickly from the […].

[5] = Whole blood clearance of radioactivity in male mongrel dog, gamma spectrometer (FIG. 3); format: in vivo
Procedure: The procedures for injecting and taking and analyzing blood samples from the female beagle were repeated with a male mongrel dog weighing 14.1 kilograms, and the results are presented in FIG. 3. In this case, a sample of 0.1 to 1.0 milliliter of a solution of the chelate of technetium-99 m and N-(3-cyano-3,3-diphenylpropyl)-iminodiacacetic acid prepared as in Examples 1 and 2 and having a radioactivity of 3.08 mCi and containing 0.5 to 5 milligrams of the chelate was administered. In this case, the radioactivity of one milliliter samples of whole blood was measured.
as §6

[6] = Urinary excretion of radioactivity in male mongrel dog; format: in vivo; details: through 2 hours after administration
[7] = Organ radioactivity and imaging in test animals (all species) after i.v. chelate; format: in vivo, rabbit, dog, monkey
Procedure: as §1, §4, §5, §2

[8] = i.v., 1.2 mCi, minutes after administration: 0.5, 3, 10, 20, 30, 60, 120, 180, 240
[9] = within 120 minutes after administration
[10] = female beagle, about 120 minutes after administration
[11] = female beagle, 1.13 mCi (Table 2), minutes after administration: 1, 10, 20, 30, 40, 50, 60
[12] = female beagle, 3.10 mCi (Table 3), minutes after administration: b87 10, b88 25, b89 35, b90 65, b91 102, b92 160
[13] = i.v., 1.23 mCi, minutes after administration: 1, 10, 20, 30, 40, 50, 60
[14] = test animals, first 3 hours after administration

Substance: chelate of technetium-99 m and N-(3-cyano-3,3-diphenylpropyl)-iminodiacetic acid
- route of clearance from the vascular system [1]: solely by the liver and biliary excretion
- time to appearance of chelate in the gallbladder [1]: ≤ 3 min
- Relative Distribution of Chelate: Gallbladder [1, 8]: - and + and ++
- Relative Distribution of Chelate: Intestine [1, 8]: - and + and ++ and +++
- Relative Distribution of Chelate: Liver [1, 8]: +++ and ++ and + and ± and -
- Relative Distribution of Chelate: Vascular [1, 8]: ++ and -
- radioactivity of heart, aorta, kidneys and liver ([1]; within 0.5 minutes after administration): strongly radioactive
- amount in the gallbladder [1, 9]: a relatively small amount
- amount of chelate in the intestine [1, 9]: the bulk of the chelate
- radioactivity in the hepatic parenchyma [1, 9]: no measurable radioactivity
- administered chelate appeared in the liver ([2]; dog, within 15 minutes after administration): more than 70%
- appearance of the chelate in the gallbladder compared with rabbit ([2]; female beagle): slower than in the case of the rabbit
- excretion of the chelate from the gallbladder into the intestine compared with rabbit or monkey ([2]; female beagle): slower in the female beagle than either in the rabbit or monkey
- route of clearance from the vascular system ([2]; female beagle): exclusively by the liver and biliary excretion
- total dose of the radioactive chelate in the hepatobiliary system [2, 10]: > 90%
- total radioactivity administered concentrated in the gallbladder [2, 10]: about 75%
- Relative Distribution of Chelate: Gallbladder [2, 11]: - and + and ++ and +++
- Relative Distribution of Chelate: Liver [2, 11]: ++ and +++ and +
- Relative Distribution of Chelate: Vascular [2, 11]: ++ and -
- Relative Distribution of Chelate: Gallbladder [2, 12]: - and + and ++ and +++
- Relative Distribution of Chelate: Liver [2, 12]: +++ and ++ and + and ± and -
- Relative Distribution of Chelate: Vascular [2, 12]: + and -
- radioactive chelate in the total hepatobiliary system passed from the liver into the gallbladder ([2]; female beagle, within about 45 minutes after administration): Approximately 50%
- administered radioactivity accumulated in the hepatobiliary system ([2]; female dog, during the first 30 minutes): more than 85%
- appearance of the chelate in the gallbladder compared with rabbit [3]: slower than in the case of the rabbit
- route of clearance from the vascular system [3]: exclusively by the liver and biliary excretion
- Relative Distribution of Chelate: Gallbladder [3, 13]: - and +
- Relative Distribution of Chelate: Intestine [3, 13]: - and + and ++ and +++
- Relative Distribution of Chelate: Liver [3, 13]: +++ and ++ and +
- Relative Distribution of Chelate: Vascular [3, 13]: + and -
- clearance kinetics [4]: bi-exponential decay
- half time of distributive phase of clearance [4]: 0.1 h
- half time of elimination phase of clearance [4]: 1.5 h
- clearance kinetics [5]: bi-exponential decay
- half time of distributive phase of clearance ([5]; 3.08 mCi): 0.13 h
- half time of elimination phase of clearance ([5]; 3.08 mCi): 3.5 h
- total radioactivity administered found in the urine [6]: less than 0.5%
- distribution throughout the cardiovascular system ([7]; after intravenous administration): rapidly distributed throughout the cardiovascular system
- imaging of liver and gallbladder ([7]; all species, first 3 hours after administration): in all species the conformation of these organs was easily seen and distinguished
- urinary excretion ([7]; in vivo): virtually no urinary excretion
- ratio of measured radioactivity in the gallbladder to measured background radioactivity [7, 14]: 150-200 to 1
- ratio of measured radioactivity of the liver to measured background radiation [7, 14]: 10-20 to 1
